Experimental data reported in patent publication US20150010474A1, “Compounds And Methods For Selective Imaging And/Or Ablation” (Auckland Uniservices Limited, priority 2011, published 2015).

What was measured:
[1] = One-electron reduction potential E(1) by pulse radiolysis; format: physicochemical; conditions: determined against methylviologen, E(1)MV2+/MV+. = −447 ± 7 mV
Description: The E(1) values of many compounds can be obtained from the literature, (for example, Wardman, P. J. Phys. Chem. Ref. Data, 1989, 18, 1637-1755.) or determined by a number of methods. The pulse radiolysis method, for example, measures the equilibrium constant between the radical anions of the nitroheterocyclic or nitroaromatic compound, formed upon their 1-electron reduction, and reference standards such as viologen and quinone compounds, from which data the E(1) values of the compounds can be calculated. (Meisel and Czapski. J. Phys. Chem., 1975, 79, 1503-1509.)
(Anderson et al, J. Phys. Chem. A, 101, 9704-9709, 1997).

[2] = system: bacterial nitroreductase over-expressing E. coli strains; test: IC50 (turbidity) in selected NTR over-expressing library strains; format: cell-based, Escherichia coli; conditions: 4 h post-challenge, serial dilution
Method: FIG. 2.3 illustrates the IC50 of compound 67 for selected NTR library strains (i.e. the concentration of compound 67 that yielded only 50% turbidity relative to an unchallenged control 4 h post-challenge, in replicate cultures across a serial dilution of compound 67). The strains selected were all those observed to have SOS activity above the empty plasmid control (“Empty”) in response to challenge with compound 67 as illustrated in FIG. 2(B), plus NfsB (E.c) as a negative control. For the IC50 assays, 100 μl of overnight cultures were used to inoculate 2 ml M63 minimal medium supplemented with 100 μg·ml^−1 ampicillin and 50 μM IPTG and incubated at 30° C., 200 rpm for 3.5 h. 40 μL aliquots from each culture were then added to individual wells of a sterile 384 well plate, each already containing 40 μl of ampicillin and IPTG-supplemented M63 medium and a dilution series of compound 67 as indicated on the X-axis of panel A. A. Raw growth curves. Each NTR over-expression strain was tested at least in duplicate (independent replicates), with the exception of NfsB (E.c), which was only measured once. Culture turbidity was monitored by optical density at 600 nm 4 h post-challenge. B. IC50 values calculated by comparison of the challenged cells with the unchallenged control for each strain, after subtracting the initial absorbance values (t=0 h), using SigmaPlot 10.0 (Systat Software Inc., Richmond, Calif.). Errors are 1 standard error of the mean (SEM).
(§1) FIG. 2.4 illustrates the IC50 of compound 93 for selected NTR library strains. […] B. IC50 values calculated by comparison of the challenged cells with the unchallenged control for each strain, after subtracting the initial absorbance values (t=0 h), using SigmaPlot 10.0 (Systat Software Inc., Richmond, Calif.). […]
as §1, with “2.5” for “2.4”, “97” for “93”

[3] = system: HCT-116 cells stably over-expressing cytochrome P450 reductase (CYPOR); test: Flow cytometry of metabolism and binding (EF5 antibody); format: cell-based, human; conditions: 2 h
Method: (§2) FIG. 4 illustrates the results of a second independent flow cytometry analysis of compound 15 and 93 metabolism and binding in wild-type HCT-116 cells, HCT-116 cells stably over-expressing cytochrome P450 reductase (CYPOR), a human one-electron reductase known to metabolise nitroheterocyclic and nitroaromatic compounds, or HCT-116 cells stably expressing the bacterial nitroreductase E. coli NfsA. 1×10^6HCT-116 cells were seeded in 6 well plates underaerobic conditions (21% O2, 5% CO2). After 2 h incubation, drug free control (wild-type HCT-116, foreground), 20 μM (wild-type HCT-116, second plot), 100 μM (wild-type HCT-116, third plot), 20 μM (HCT-116-CYPOR, forth plot), 100 μM (HCT-116-CYPOR, fifth plot) or 20 μM (HCT-116-NfsA, sixth plot) of compound 15 or 93 was added. After 2 h incubation cells were harvested and fixed with paraformaldehyde before being incubated overnight with 100 μl of 75 μg/ml EF5 CY5 conjugated antibody. Samples were then analysed on a Becton Dickinson FACscan flow cytometer.
FIG. 5 illustrates the results of flow cytometry analysis of HCT-116 cells stably over-expressing cytochrome P450 reductase (CYPOR), a human one-electron reductase known to metabolise nitroheterocyclic and nitroaromatic compounds. 1×10^6HCT-116-CYPOR cells were seeded in 6 well plates in aerobic, anoxic and 0.2% oxygen conditions designed to replicate the lower limit of pathological hypoxia observed in human tumours. After 2 h incubation, drug free control (foreground), 20 μM (middle) or 100 μM (background) of compound 15 or 67 was added. After 2 h incubation cells were harvested and fixed with paraformaldehyde before being incubated overnight with 100 μl of 75 μg/ml EF5 CY5 conjugated antibody. Samples were then analysed on a Becton Dickinson FAC scan flow cytometer.
(§3) FIG. 6 illustrates the results of flow cytometry analysis of compound 15 and 93 metabolism and binding in wild-type HCT-116 cells and HCT-116 cells stably over-expressing cytochrome P450 reductase (CYPOR), a human one-electron reductase known to metabolise nitroheterocyclic and nitroaromatic compounds. 1×10^6 HCT-116 cells were seeded in 6 well plates underanoxic conditions. After 2 h incubation, drug free control (wild-type HCT-116, foreground), 20 μM (wild-type HCT-116, second plot), 100 μM (wild-type HCT-116, third plot), 20 μM (HCT-116-CYPOR, forth plot) or 100 μM (HCT-116-CYPOR, fifth plot) of compound 15 or 93 was added. After 2 h incubation cells were harvested and fixed with paraformaldehyde before being incubated overnight with 100 μl of 75 μg/ml EF5 CY5 conjugated antibody. Samples were then analysed on a Becton Dickinson FACscan flow cytometer.

[4] = system: wild-type HCT-116 cells; test: as above; format: cell-based, human; conditions: for Metabolism and binding by FACS, wild-type HCT-116 cells (FIG. 3): 20 μM, 2 hours, oxic conditions (21% O2, 5% CO2)
Method: FIG. 3 illustrates the results of flow cytometry analysis of HCT-116 cells stably expressing E. coli NfsA relative to HCT-116 wild-type cells after in vitro exposure to 20 μM of compounds 15, 93 and 67 for 2 hours. 1×10^6 cells were incubated with test compounds under oxic conditions. Samples were fixed and stained with EF5 antibody Alexa 488 ELK3.51 at 100 μg/ml. Samples were then analysed on a Becton Dickinson FACscan flow cytometer.
as §2, §3

SMILES	E(1)/V [1]	Inhibition of bacterial cell growth in NTR over-expressing strains compared to controls [2]	Metabolism and binding by FACS, HCT-116-CYPOR cells, 0.2% oxygen (FIG. 5) ([3]; 20 μM or 100 μM, 0.2% oxygen)	Metabolism and binding by FACS, HCT-116-CYPOR cells, aerobic (FIG. 5) ([3]; 20 μM or 100 μM, aerobic)	Metabolism and binding by FACS, wild-type HCT-116 cells (FIG. 3) [4]	Metabolism and binding by FACS, HCT-116-CYPOR cells (FIG. 4) ([3]; 20 μM and 100 μM, aerobic conditions)	Metabolism and binding by FACS, HCT-116-CYPOR cells, anoxia (FIG. 6) ([3]; 20 μM and 100 μM, anoxic conditions)	Metabolism and binding by FACS, wild-type HCT-116 cells (FIG. 4) ([4]; 20 μM and 100 μM, 2 h, aerobic conditions)	Metabolism and binding by FACS, wild-type HCT-116 cells, anoxia (FIG. 6) ([4]; 20 μM and 100 μM, 2 h, anoxic conditions)
Cc1ncc([N+](=O)[O-])n1CC(=O)NCC(F)(F)C(F)(F)F [Compound 67, 2-(2-methyl-5-nitro-1H-imidazol-1-yl)-N-(2,2,3,3,3-pentafluoropropyl)acetamide]	−0.501 V	Inhibition of bacterial cell growth was selectively observed	negligible metabolism and binding	negligible metabolism and binding	minimal metabolism and binding	–	–	–	–
O=C(Cn1cnc([N+](=O)[O-])c1)NCC(F)(F)C(F)(F)F [Compound 93, 2-(4-nitro-1H-imidazol-1-yl)-N-(2,2,3,3,3-pentafluoropropyl)acetamide]	−0.578 V	Inhibition of bacterial cell growth was selectively observed	–	–	minimal metabolism and binding	minimal metabolism and binding	negligible metabolism and binding	minimal metabolism and binding	negligible metabolism and binding
